Experimental data as given in PMC9154192 (PLoS Biology, 2022).
Read-outs that look alike come from different tables or passages of the source.

Type: in vivo, SD rats
Settings: for Adrenal gland: Vacuolation, cortical, diffuse, Grade 1, no. of animals / Adrenal gland: Vacuolation, cortical, diffuse, Grade 2, no. of animals / Epididymis: Infiltrate, inflammatory cell, interstitum, Grade 1, no. of animals / Eye: Dysplasia, retina, focal, Grade 1, no. of animals / Harderian gland: Infiltrate, inflammatory cell, focal, Grade 1, no. of animals / Kidney: Basophilia, tubule, cortex, Grade 1, no. of animals / Kidney: Cast, hyaline, cortex, Grade 1, no. of animals / Kidney: Hydronephrosis, unilateral, Grade 3, no. of animals / Kidney: Infiltrate, inflammatory cell, interstitium, Grade 1, no. of animals / Kidney: Infiltrate, inflammatory cell, interstitium, Grade 2, no. of animals / Kidney: Mineralization, cortex, Grade 1, no. of animals / Kidney: Mineralization, corticomedullary junction, Grade 1, no. of animals / Kidney: Mineralization, medulla, Grade 1, no. of animals / Liver: Extramedullary hematopoiesis, Grade 1, no. of animals / Liver: Fatty change, sporadic/periportal, Grade 1, no. of animals / Liver: Fatty change, sporadic/periportal, Grade 2, no. of animals / Liver: Infiltrate, mononuclear cell, focal, Grade 1, no. of animals / Liver: Infiltrate, mononuclear cell, focal, Grade 2, no. of animals / Lung including bronchi: Alveolar macrophage aggregation, focal, Grade 1, no. of animals / Lung including bronchi: Infiltrate, mononuclear cell, alveolar, focal, Grade 1, no. of animals / Pituitary gland: Cyst, pars nervosa, Presence, no. of animals / Prostate: Infiltrate, inflammatory cell, interstitium, Grade 1, no. of animals / Salivary gland (parotid): Focus, hypertrophic, basophilic, focal, Grade 1, no. of animals / Spleen: Pigmentation, Grade 1, no. of animals / Submandibular lymph node: Increased, plasma cell, Grade 2, no. of animals / Thyroid gland: Ectopic thymus, Presence, no. of animals / Thyroid gland: Ultimobranchial cyst, Presence, no. of animals: female
Experimental: A subchronic toxicity study was performed for PP2S. Female and male rats were divided into a control group (0 mg/kg/day, n = 15), a low-dose group (167 mg/kg/day, n = 10), a medium-dose group (500 mg/kg/day, n = 10), and a high-dose group (1,500 mg/kg/day, n = 15), respectively. Thus, there were a total of 8 groups. The drug was administered by oral gavage at 10 mL/kg body weight daily for 4 weeks. Five animals each in the control and high-dose groups continued their treatments for 2 more weeks. Clinical symptoms were observed, and body weight was measured during the test period for a total of 6 weeks; 0.5% methyl cellulose 1,500 cP (Sigma, USA) in water for injection (JW Pharmaceutical, Korea) was used as a vehicle. Control animals were treated with only the same volume of the vehicle.
Histopathological examination was performed while performing a 4-week repeated oral toxicity study for PP2S. Organs and tissues from all animals subjected to autopsy were removed and fixed in 10% neutral buffered formalin. Among them, testes, eyeballs and optic nerve were fixed in Davidson's fixative and then in 10% neutral buffered formalin. For organs/tissues subjected to histopathological examination, specimens were prepared according to the histopathological specimen preparation SOP. For histopathological examination, organs and tissues of all subjects in the control group and the high-dose group, and macroscopically observed subjects in the low-dose group were examined. […] In addition, all other changes observed in histopathological examination were judged to be spontaneous or accidental. Those not specifically observed for all groups by organ were marked with a 'dash' symbol. Grade 1, minimal; Grade 2, slight; Grade 3, moderate; Grade 4, severe.

[1] = all groups (167, 500, 1,500 mg/kg; male, female; dosing and recovery period)
[2] = G2 167 mg/kg, dosing period, n=10
[3] = G3 500 mg/kg, dosing period, n=10
[4] = G4 1,500 mg/kg, dosing period, n=10
[5] = G4 1,500 mg/kg, recovery period, n=5

CCCCOc1ccc2cc(CN3C(=O)CC[C@H]3C(=O)OC)c3cc(OC)c(OC)cc3c2c1 [PP2S, Methyl (S)-1-((3-butoxy-6,7-dimethoxyphenanthren-9-yl)methyl)-5-oxopyrrolidine-2-carboxylate]
histopathological change due to administration (all administration groups, 4-week repeated oral toxicity study): no change was observed
Histopathological findings: Brain [1]: -
Histopathological findings: Cecum [1]: -
Histopathological findings: Colon [1]: -
Histopathological findings: Duodenum [1]: -
Histopathological findings: Exophagus [1]: -
Histopathological findings: Femur including bone marrow [1]: -
Histopathological findings: Heart [1]: -
Histopathological findings: Ileum [1]: -
Histopathological findings: Jejunum [1]: -
Histopathological findings: Mammary gland (inguinal) [1]: -
Histopathological findings: Mesenteric lymph node [1]: -
Histopathological findings: Optic nerve [1]: -
Histopathological findings: Pancreas [1]: -
Histopathological findings: Parathyroid gland [1]: -
Histopathological findings: Rectum [1]: -
Histopathological findings: Salivary gland (sublingual) [1]: -
Histopathological findings: Salivary gland (submandibular) [1]: -
Histopathological findings: Seminal vesicle [1]: -
Histopathological findings: Skin (inguinal) [1]: -
Histopathological findings: Spinal cord (thoracic) [1]: -
Histopathological findings: Sternum including bone marrow [1]: -
Histopathological findings: Stomach [1]: -
Histopathological findings: Testis [1]: -
Histopathological findings: Thymus [1]: -
Histopathological findings: Tongue [1]: -
Histopathological findings: Trachea [1]: -
Histopathological findings: Urinary bladder [1]: -
Histopathological findings: Uterus [1]: -
Histopathological findings: Vagina [1]: -
Adrenal gland: Vacuolation, cortical, diffuse, Grade 1, no. of animals [2]: 0
Adrenal gland: Vacuolation, cortical, diffuse, Grade 2, no. of animals [2]: 0
Epididymis: Infiltrate, inflammatory cell, interstitum, Grade 1, no. of animals [2]: 0
Eye: Dysplasia, retina, focal, Grade 1, no. of animals [2]: 0
Harderian gland: Infiltrate, inflammatory cell, focal, Grade 1, no. of animals [2]: 0
Kidney: Basophilia, tubule, cortex, Grade 1, no. of animals [2]: 0
Kidney: Cast, hyaline, cortex, Grade 1, no. of animals [2]: 0
Kidney: Hydronephrosis, unilateral, Grade 3, no. of animals [2]: 0
Kidney: Infiltrate, inflammatory cell, interstitium, Grade 1, no. of animals [2]: 0
Kidney: Infiltrate, inflammatory cell, interstitium, Grade 2, no. of animals [2]: 0
Kidney: Mineralization, cortex, Grade 1, no. of animals [2]: 0
Kidney: Mineralization, corticomedullary junction, Grade 1, no. of animals [2]: 0
Kidney: Mineralization, medulla, Grade 1, no. of animals [2]: 0
Liver: Extramedullary hematopoiesis, Grade 1, no. of animals [2]: 0
Liver: Fatty change, sporadic/periportal, Grade 1, no. of animals [2]: 0
Liver: Fatty change, sporadic/periportal, Grade 2, no. of animals [2]: 0
Liver: Infiltrate, mononuclear cell, focal, Grade 1, no. of animals [2]: 0
Liver: Infiltrate, mononuclear cell, focal, Grade 2, no. of animals [2]: 0
Lung including bronchi: Alveolar macrophage aggregation, focal, Grade 1, no. of animals [2]: 0
Lung including bronchi: Infiltrate, mononuclear cell, alveolar, focal, Grade 1, no. of animals [2]: 0
Pituitary gland: Cyst, pars nervosa, Presence, no. of animals [2]: 0
Prostate: Infiltrate, inflammatory cell, interstitium, Grade 1, no. of animals [2]: 0
Salivary gland (parotid): Focus, hypertrophic, basophilic, focal, Grade 1, no. of animals [2]: 0
Spleen: Pigmentation, Grade 1, no. of animals [2]: 0
Submandibular lymph node: Increased, plasma cell, Grade 2, no. of animals [2]: 0
Thyroid gland: Ectopic thymus, Presence, no. of animals [2]: 0
Thyroid gland: Ultimobranchial cyst, Presence, no. of animals [2]: 0
Adrenal gland: Vacuolation, cortical, diffuse, Grade 1, no. of animals [3]: 0
Adrenal gland: Vacuolation, cortical, diffuse, Grade 2, no. of animals [3]: 0
Epididymis: Infiltrate, inflammatory cell, interstitum, Grade 1, no. of animals [3]: 0
Eye: Dysplasia, retina, focal, Grade 1, no. of animals [3]: 0
Harderian gland: Infiltrate, inflammatory cell, focal, Grade 1, no. of animals [3]: 0
Kidney: Basophilia, tubule, cortex, Grade 1, no. of animals [3]: 0
Kidney: Cast, hyaline, cortex, Grade 1, no. of animals [3]: 0
Kidney: Hydronephrosis, unilateral, Grade 3, no. of animals [3]: 0
Kidney: Infiltrate, inflammatory cell, interstitium, Grade 1, no. of animals [3]: 0
Kidney: Infiltrate, inflammatory cell, interstitium, Grade 2, no. of animals [3]: 0
Kidney: Mineralization, cortex, Grade 1, no. of animals [3]: 0
Kidney: Mineralization, corticomedullary junction, Grade 1, no. of animals [3]: 0
Kidney: Mineralization, medulla, Grade 1, no. of animals [3]: 0
Liver: Extramedullary hematopoiesis, Grade 1, no. of animals [3]: 0
Liver: Fatty change, sporadic/periportal, Grade 1, no. of animals [3]: 0
Liver: Fatty change, sporadic/periportal, Grade 2, no. of animals [3]: 0
Liver: Infiltrate, mononuclear cell, focal, Grade 1, no. of animals [3]: 0
Liver: Infiltrate, mononuclear cell, focal, Grade 2, no. of animals [3]: 0
Lung including bronchi: Alveolar macrophage aggregation, focal, Grade 1, no. of animals [3]: 0
Lung including bronchi: Infiltrate, mononuclear cell, alveolar, focal, Grade 1, no. of animals [3]: 0
Pituitary gland: Cyst, pars nervosa, Presence, no. of animals [3]: 0
Prostate: Infiltrate, inflammatory cell, interstitium, Grade 1, no. of animals [3]: 0
Salivary gland (parotid): Focus, hypertrophic, basophilic, focal, Grade 1, no. of animals [3]: 0
Spleen: Pigmentation, Grade 1, no. of animals [3]: 0
Submandibular lymph node: Increased, plasma cell, Grade 2, no. of animals [3]: 0
Thyroid gland: Ectopic thymus, Presence, no. of animals [3]: 0
Thyroid gland: Ultimobranchial cyst, Presence, no. of animals [3]: 0
Adrenal gland: Vacuolation, cortical, diffuse, Grade 1, no. of animals [4]: 0
Adrenal gland: Vacuolation, cortical, diffuse, Grade 2, no. of animals [4]: 0
Epididymis: Infiltrate, inflammatory cell, interstitum, Grade 1, no. of animals [4]: 0
Eye: Dysplasia, retina, focal, Grade 1, no. of animals [4]: 1
Harderian gland: Infiltrate, inflammatory cell, focal, Grade 1, no. of animals [4]: 0
Kidney: Basophilia, tubule, cortex, Grade 1, no. of animals [4]: 1
Kidney: Cast, hyaline, cortex, Grade 1, no. of animals [4]: 0
Kidney: Hydronephrosis, unilateral, Grade 3, no. of animals [4]: 1
Kidney: Infiltrate, inflammatory cell, interstitium, Grade 1, no. of animals [4]: 4
Kidney: Infiltrate, inflammatory cell, interstitium, Grade 2, no. of animals [4]: 0
Kidney: Mineralization, cortex, Grade 1, no. of animals [4]: 0
Kidney: Mineralization, corticomedullary junction, Grade 1, no. of animals [4]: 1
Kidney: Mineralization, medulla, Grade 1, no. of animals [4]: 0
Liver: Extramedullary hematopoiesis, Grade 1, no. of animals [4]: 0
Liver: Fatty change, sporadic/periportal, Grade 1, no. of animals [4]: 5
Liver: Fatty change, sporadic/periportal, Grade 2, no. of animals [4]: 1
Liver: Infiltrate, mononuclear cell, focal, Grade 1, no. of animals [4]: 2
Liver: Infiltrate, mononuclear cell, focal, Grade 2, no. of animals [4]: 2
Lung including bronchi: Alveolar macrophage aggregation, focal, Grade 1, no. of animals [4]: 0
Lung including bronchi: Infiltrate, mononuclear cell, alveolar, focal, Grade 1, no. of animals [4]: 0
Pituitary gland: Cyst, pars nervosa, Presence, no. of animals [4]: 0
Prostate: Infiltrate, inflammatory cell, interstitium, Grade 1, no. of animals [4]: 0
Salivary gland (parotid): Focus, hypertrophic, basophilic, focal, Grade 1, no. of animals [4]: 1
Spleen: Pigmentation, Grade 1, no. of animals [4]: 4
Submandibular lymph node: Increased, plasma cell, Grade 2, no. of animals [4]: 0
Thyroid gland: Ectopic thymus, Presence, no. of animals [4]: 2
Thyroid gland: Ultimobranchial cyst, Presence, no. of animals [4]: 4
Adrenal gland: Vacuolation, cortical, diffuse, Grade 1, no. of animals [5]: 0
Adrenal gland: Vacuolation, cortical, diffuse, Grade 2, no. of animals [5]: 0
Epididymis: Infiltrate, inflammatory cell, interstitum, Grade 1, no. of animals [5]: 0
Eye: Dysplasia, retina, focal, Grade 1, no. of animals [5]: 0
Harderian gland: Infiltrate, inflammatory cell, focal, Grade 1, no. of animals [5]: 0
Kidney: Basophilia, tubule, cortex, Grade 1, no. of animals [5]: 0
Kidney: Cast, hyaline, cortex, Grade 1, no. of animals [5]: 0
Kidney: Hydronephrosis, unilateral, Grade 3, no. of animals [5]: 0
Kidney: Infiltrate, inflammatory cell, interstitium, Grade 1, no. of animals [5]: 3
Kidney: Infiltrate, inflammatory cell, interstitium, Grade 2, no. of animals [5]: 0
Kidney: Mineralization, cortex, Grade 1, no. of animals [5]: 0
Kidney: Mineralization, corticomedullary junction, Grade 1, no. of animals [5]: 0
